Columns and labels:
Type in all cases: in vivo
[1] = system: Apera spica-venti; test: Test Example 5: herbicidal effect by foliage application, plastic box (symbol L); conditions: 320 g/ha, 3 weeks after application
How it was run: (§1)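 Sowing in sterilized diluvial soil, 14 days' greenhouse growth at 25° C. to 30° C., then uniform small-sprayer foliar application of aqueous emulsion dilution; plants scored three weeks afterwards.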

[2] = system: Apera spica-venti; test: Test Example 4: herbicidal effect by soil treatment (symbol L); conditions: application herbicide amount 320 g/ha
How it was run: (§2)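 Seeds were sown in sterilized diluvial soil, covered with about 1.5 cm of soil, and the soil surface was sprayed with a water-diluted emulsion of the compound at a predetermined rate. Plants grew in a greenhouse at 25° C. to 30° C.; effects were scored visually 3 weeks after application.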

[3] = system: Avena fatua; test: Test Example 4: herbicidal effect by soil treatment (symbol I)
How it was run: as §2

[4] = system: Echinochloa oryzacola Vasing.; test: Test Example 1: herbicidal activity, application before weed generation in submerged conditions (symbol A); conditions: application herbicide amount 320 g/ha
How it was run: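 Scores run 0 to 5 by herbicidal ratio, with 5 meaning 90% or more and 0 meaning 5% or lower, read 3 weeks after treatment. Compound was applied as a diluted emulsion to the water surface of submerged alluvial-soil pots on the day weed seeds were sown.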

[5] = system: rapeseed; test: Test Example 4: effect on crop by soil treatment (symbol g); conditions: for g: rapeseed, effect on crop grade: application herbicide amount 320 g/ha
How it was run: (§3)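 Seeds were sown in spots on sterilized diluvial soil in a plastic box and covered with about 1.5 cm of soil. Plants were then grown in a greenhouse at 25° C. to 30° C.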

[6] = system: Stellaria media; test: Test Example 5: herbicidal effect by foliage application, plastic box (symbol P); conditions: 320 g/ha, 3 weeks after application
How it was run: as §1

[7] = system: Echinochloa crus-galli var. crus-galli; test: Test Example 4: herbicidal effect by soil treatment (symbol H)
How it was run: as §2

[8] = system: Digitaria ciliaris; test: Test Example 4: herbicidal effect by soil treatment (symbol F)
How it was run: as §2

[9] = system: soybean; test: Test Example 4: effect on crop by soil treatment (symbol d); conditions: for d: soybean, effect on crop grade: application herbicide amount 320 g/ha
How it was run: as §3

[10] = system: Stellaria media; test: Test Example 4: herbicidal effect by soil treatment (symbol P)
How it was run: as §2

[11] = system: rice; test: Test Example 4: effect on crop by soil treatment (symbol b); conditions: for b: directly sowed rice plant, effect on crop grade: application herbicide amount 320 g/ha
How it was run: as §3

[12] = system: Echinochloa crus-galli var. crus-galli; test: Test Example 5: herbicidal effect by foliage application, plastic box (symbol H); conditions: 320 g/ha, 3 weeks after application
How it was run: as §1

[13] = system: Lolium multiflorum Lam.; test: Test Example 4: herbicidal effect by soil treatment (symbol K)
How it was run: as §2

[14] = system: transplanted rice plant; test: Test Example 1: effect on crop, application before weed generation in submerged conditions (symbol a); conditions: application herbicide amount 320 g/ha
How it was run: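 Alluvial soil pots flooded to 4 cm water, sown with Echinochloa oryzacola, Scirpus juncoides and Monochoria vaginalis, then transplanted with 2.5 leaf stage rice seedlings; pre-emergence application. Greenhouse 25° C. to 30° C.; scored 0–5 by herbicidal ratio 3 weeks after application.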

[15] = system: Lolium multiflorum Lam.; test: Test Example 5: herbicidal effect by foliage application, plastic box (symbol K); conditions: 320 g/ha, 3 weeks after application
How it was run: as §1

[16] = system: Monochoria vaginalis; test: Test Example 2: herbicidal activity, application during weed generation in submerged conditions (symbol C); conditions: Table 23; application herbicide amount 320 g/ha; grade 0-5 by criteria of Test Example 1
How it was run: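 Read-out: herbicidal effect on each species rated on a visual scale 3 weeks after treatment. Plants were raised together from seed in flooded alluvial soil (4 cm water) at 25° C. to 30° C. and treated at one to two leaves by water-surface application of diluted emulsion.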

[17] = system: Veronica persica; test: Test Example 4: herbicidal effect by soil treatment (symbol R); conditions: 320 g/ha
How it was run: as §2

[18] = application herbicide amount 320 g/ha

Structure (SMILES) | L: Apera spica-venti, herbicidal effect grade [1] | L: Apera spica-venti, herbicidal effect grade [2] | I: Avena fatua, herbicidal effect grade [3, 18] | Herbicidal effect grade, A: Echinochloa oryzacola Vasing. [4] | g: rapeseed, effect on crop grade [5] | H: Echinochloa crus-galli var. crus-galli, herbicidal effect grade [7, 18] | F: Digitaria ciliaris, herbicidal effect grade [8, 18] | d: soybean, effect on crop grade [9] | P: Stellaria media, herbicidal effect grade [10, 18] | b: directly sowed rice plant, effect on crop grade [11] | H: Echinochloa crus-galli var. crus-galli, herbicidal effect grade [12] | K: Lolium multiflorum Lam., herbicidal effect grade [13, 18] | Effect grade on crop, a: transplanted rice plant [14] | K: Lolium multiflorum Lam., herbicidal effect grade [15] | Herbicidal effect grade, C: Monochoria vaginalis [16] | further results
CON=C(C)CC1CC(O)=C(c2c(C)cc(C#CC3CC3)cc2C)C1=O (mixture of isomers) [6-010] | 5 (Herbicidal ratio of 90% or more (almost completely withered)) | 5 (Herbicidal ratio of 90% or more (almost completely withered)) | 3 (Herbicidal ratio of 40% or higher and lower than 70%) | 5 (Herbicidal ratio of 90% or more (almost completely withered)) | 0 (Herbicidal ratio of 5% or lower (almost no effect)) | 5 (Herbicidal ratio of 90% or more (almost completely withered)) | 5 (Herbicidal ratio of 90% or more (almost completely withered)) | 0 (Herbicidal ratio of 5% or lower (almost no effect)) | 0 (Herbicidal ratio of 5% or lower (almost no effect)) | 5 (Herbicidal ratio of 90% or more (almost completely withered)) | 5 (Herbicidal ratio of 90% or more (almost completely withered)) | 5 (Herbicidal ratio of 90% or more (almost completely withered)) | 5 (Herbicidal ratio of 90% or more (almost completely withered)) | 4 (Herbicidal ratio of 70% or higher and lower than 90%) | 0 (Herbicidal ratio of 5% or lower (almost no effect)) | P: Stellaria media, herbicidal effect grade [6]: 0 (Herbicidal ratio of 5% or lower (almost no effect))
CON=C(C)CC1CC(OS(=O)(=O)CCCCl)=C(c2c(C)cc(C)cc2C)C1=O (stereo not shown) [1-142] |  |  |  | 5 (Herbicidal ratio of 90% or more (almost completely withered)) |  |  |  |  |  |  |  |  | 5 (Herbicidal ratio of 90% or more (almost completely withered)) |  |  | L: Apera spica-venti, herbicidal effect (criteria 0-5) [1]: 5 (Herbicidal ratio of 90% or more (almost completely withered)); I: Avena fatua, herbicidal effect grade ([3]; 320 g/ha): 3 (Herbicidal ratio of 40% or higher and lower than 70%); g: rapeseed, effect grade on crop ([5]; 320 g/ha): 3 (Herbicidal ratio of 40% or higher and lower than 70%); P: Stellaria media, herbicidal effect (criteria 0-5) [6]: 3 (Herbicidal ratio of 40% or higher and lower than 70%); H: Echinochloa crus-galli var. crus-galli, herbicidal effect grade ([7]; 320 g/ha): 5 (Herbicidal ratio of 90% or more (almost completely withered)); F: Digitaria ciliaris, herbicidal effect grade ([8]; 320 g/ha): 5 (Herbicidal ratio of 90% or more (almost completely withered)); d: soybean, effect grade on crop ([9]; 320 g/ha): 0 (Herbicidal ratio of 5% or lower (almost no effect)); P: Stellaria media, herbicidal effect grade ([10]; 320 g/ha): 0 (Herbicidal ratio of 5% or lower (almost no effect)); b: directly sowed rice plant, effect grade on crop ([11]; 320 g/ha): 5 (Herbicidal ratio of 90% or more (almost completely withered)); H: Echinochloa crus-galli var. crus-galli, herbicidal effect (criteria 0-5) [12]: 5 (Herbicidal ratio of 90% or more (almost completely withered)); K: Lolium multiflorum Lam., herbicidal effect grade ([13]; 320 g/ha): 5 (Herbicidal ratio of 90% or more (almost completely withered)); K: Lolium multiflorum Lam., herbicidal effect (criteria 0-5) [15]: 5 (Herbicidal ratio of 90% or more (almost completely withered)); R: Veronica persica, herbicidal effect grade [17]: 0 (Herbicidal ratio of 5% or lower (almost no effect))
CCc1cc(Br)cc(C)c1C1=C(O)CC(CC(C)=NOC)C1=O (stereo not shown) [6-001] | 5 (Herbicidal ratio of 90% or more (almost completely withered)) | 5 (Herbicidal ratio of 90% or more (almost completely withered)) | 5 (Herbicidal ratio of 90% or more (almost completely withered)) | 5 (Herbicidal ratio of 90% or more (almost completely withered)) | 2 (Herbicidal ratio of 20% or higher and lower than 40%) | 5 (Herbicidal ratio of 90% or more (almost completely withered)) | 5 (Herbicidal ratio of 90% or more (almost completely withered)) | 0 (Herbicidal ratio of 5% or lower (almost no effect)) | 0 (Herbicidal ratio of 5% or lower (almost no effect)) | 5 (Herbicidal ratio of 90% or more (almost completely withered)) | 5 (Herbicidal ratio of 90% or more (almost completely withered)) | 5 (Herbicidal ratio of 90% or more (almost completely withered)) | 5 (Herbicidal ratio of 90% or more (almost completely withered)) | 5 (Herbicidal ratio of 90% or more (almost completely withered)) | 0 (Herbicidal ratio of 5% or lower (almost no effect)) | 
CCc1cc(Br)cc(C)c1C1=C(O)CC(C(C(=O)OC)C(C)=NOC)C1=O (stereo not shown) [6-002] | 5 (Herbicidal ratio of 90% or more (almost completely withered)) | 4 (Herbicidal ratio of 70% or higher and lower than 90%) | 0 (Herbicidal ratio of 5% or lower (almost no effect)) | 3 (Herbicidal ratio of 40% or higher and lower than 70%) | 0 (Herbicidal ratio of 5% or lower (almost no effect)) | 2 (Herbicidal ratio of 20% or higher and lower than 40%) | 2 (Herbicidal ratio of 20% or higher and lower than 40%) | 0 (Herbicidal ratio of 5% or lower (almost no effect)) | 0 (Herbicidal ratio of 5% or lower (almost no effect)) | 5 (Herbicidal ratio of 90% or more (almost completely withered)) | 5 (Herbicidal ratio of 90% or more (almost completely withered)) | 5 (Herbicidal ratio of 90% or more (almost completely withered)) | 3 (Herbicidal ratio of 40% or higher and lower than 70%) | 5 (Herbicidal ratio of 90% or more (almost completely withered)) | 0 (Herbicidal ratio of 5% or lower (almost no effect)) | 

— patent publication US11000033B2, “Ketone or oxime compound, and herbicide” (NISSAN CHEMICAL CORPORATION, priority 2014, dated 2021)
